In patent US5079265A, “Composition and methods for providing optimum bioavailability of the active ingredient 2-hydroxy-5-methyllaurophenoxime (HMLO)” (VEB Fahlberg-List Chemische und pharmazeutische Fabriken, priority 1989, dated 1992):
Converted amounts (≈) assume the structure as drawn.

Legend:
[1] = Absorption of HMLO in vitro and in vivo in the presence of bile acids; conditions: compared with pure active ingredient and known preparations
From the text: This improvement is observed also in comparison with the oily preparation, although the same mechanism for affecting the absorption obviously forms the basis for this preparation.

[2] = In vivo absorption of HMLO active ingredient by rabbits after oral administration as a function of the auxiliaries used; conditions: 12 mg/kg
From the text: In Vivo Absorption of HMLO Active Ingredient by the Rabbits After Oral Administration as a Function of the Auxiliaries Used.

[3] = cited from earlier work
[4] = Effect of different auxiliaries on the solubility of HMLO active ingredient in water at 293° K; type: physicochemical; conditions: for solubility: water, 293° K
Experimental: Effect of Different Auxiliaries on the Solubility of HMLO Active Ingredient in Water at 293° K.

CCCCCCCCCCCC(=NO)c1cc(C)ccc1O [HMLO, 2-hydroxy-5-methyllaurophenoxime]
Absorption [1]: improved clearly in vitro and in vivo in the presence of bile acids
Absorption ([2]; bile acids as auxiliary, compared with oil): distinctly exceeded by the use of bile acids
Absorption ([2]; oil as auxiliary): clearly affected by the use of oil as auxiliary
Absorption ([2]; without auxiliaries): not absorbed to a measurable extent
Side effects on long-term treatment ([3]; oily preparation): occurrence of diarrhea
Bioavailability ([3]; solutions and emulsions containing oils): the bioavailability can be increased
Solubility in water ([4]; pure HMLO, no auxiliary): insoluble
solubility ([4]; auxiliary Tween (R) 80 0.75%): 130 µg/mL (≈ 426 µM)
solubility ([4]; auxiliary benzalkonium bromide 1.00%): 24 µg/mL (≈ 78.6 µM)
solubility ([4]; auxiliary polyethylene glycol 6500 10.00%): 1 µg/mL (≈ 3.27 µM)
solubility ([4]; auxiliary propylene glycol 1.00%): 2.3 µg/mL (≈ 7.53 µM)
solubility ([4]; auxiliary sodium desoxycholate 0.75%): 2750 µg/mL (≈ 9000 µM)
